Reference: PubChem BioAssay AID623861 (Sanford-Burnham Center for Chemical Genomics, 2012)
Activity calls are given as the source filed them.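 How the source made its calls: active means compounds whose EC50 for boosting single-cell stem cell survival is at or below a set limit; inactive means the rest.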

System: human iPSC single-cell survival, ATP luminescence
Test: human iPSC survival promotion after dissociation – cell-based, luminescence, dose response (AID 623861)

Row | Compound | EC50
1 | NC(=O)c1ccc(NC(=O)CCC(=O)c2cccs2)cc1 | 9.86 µM
2 | CC(OC(=O)c1ccc2c(=O)n3c(nc2c1)CCC3)C(=O)Nc1ccc(C(N)=O)cc1 (configuration not stated) | 55.6 µM (inactive)
3 | COc1ccc(CC(=O)N2N=C(c3ccncc3)CC2(O)C(F)(F)F)cc1 (configuration not stated) | > 80 µM (inactive)
4 | COc1ccc(C2=CC(=O)C[C@H](c3ccc(OC)c(OC)c3)C2)cn1 | > 80 µM (inactive)
5 | CC(Oc1ccccc1)C(=O)Nc1nc(-c2ccncc2)cs1 (configuration not stated) | 37.8 µM (inactive)
6 | O=C(Nc1ccncc1)c1c(F)c(F)c(F)c(F)c1F | 5.93 µM
7 | Cc1ccc(C(=O)OCc2cc(=O)n3ccsc3n2)s1 | > 80 µM (inactive)
8 | O=C1NCCN1c1ccccc1 | > 80 µM (inactive)
9 | COc1ccc(N2C(=O)CC(Sc3nccc(C)n3)C2=O)c(OC)c1 (configuration not stated) | > 80 µM (inactive)
10 | O=C1CCC2(C(=O)O)Sc3ccccc3N12 (configuration not stated) | > 80 µM (inactive)
11 | CCSc1cnn(-c2ccccc2)c(=O)c1Cl | > 80 µM (inactive)
12 | Cc1ccc(CN2CCN(Cc3cn(C)nc3C)CC2CCO)o1 (configuration not stated) | > 80 µM (inactive)
13 | CCCSc1nc(N2CCOCC2)c2c(c1C#N)CC(C)(C)SC2 | 25.6 µM (inactive)
14 | O=C(Nc1ccncc1)c1ccccc1[N+](=O)[O-] | 52.6 µM (inactive)
15 | CCC(C(=O)Nc1ccc2[nH]ncc2c1)c1ccccc1 (configuration not stated) | 9.45 µM
16 | Cn1c(Cl)c(/C=N/OC(=O)c2ccc(Cl)cc2)c2ccccc21 | > 80 µM (inactive)
17 | COc1ccc(C(C#N)(CC(=O)O)c2cnccn2)cc1OC (configuration not stated) | > 80 µM (inactive)
18 | Cc1ccc([C@@H]2C[C@H]3[C@@H](CN2S(=O)(=O)c2ccc(Cl)cc2)C(=O)C[C@@H](c2ccc(C)cc2)N3S(=O)(=O)c2ccc(Cl)cc2)cc1 | > 80 µM (inactive)
19 | CS(=O)(=O)Nc1ccc2c3c(cccc13)CC2 | > 80 µM (inactive)
20 | O=S(=O)(c1cccc2cnccc12)N1CCNCC1 | 2.89 µM
21 | O=C(CNC(=O)c1ccccc1)OC(C(=O)Nc1cc(C(F)(F)F)ccc1Cl)c1ccccc1 (configuration not stated) | > 80 µM (inactive)
22 | CCCCn1c(=O)[nH]c(=O)c2c1nc(Cn1ncc(Cl)c(Cl)c1=O)n2CCC | 5.62 µM
23 | Cc1c(Nc2cc(Cl)c3nonc3c2[N+](=O)[O-])c(=O)n(-c2ccccc2)n1C | > 80 µM (inactive)
24 | CCC(OC(=O)c1ccc(S(C)(=O)=O)c([N+](=O)[O-])c1)C(=O)NC1C2CC3CC(C2)CC1C3 (configuration not stated) | > 80 µM (inactive)

Row | Compound | EC50
25 | CC(C)CCNC(=O)c1onc(CSc2ccc(F)cc2)c1C(=O)NCCC(C)C | > 80 µM (inactive)
26 | CC1CNCCN1S(=O)(=O)c1cccc2cnccc12 (configuration not stated) | > 80 µM (inactive)
27 | Cc1cc(Cl)n2nc(C)c(-c3ccc(Cl)cc3)c2n1 | > 80 µM (inactive)
28 | Cc1cc(C)c2nc(N3CCN(C)CC3)c(C#N)cc2c1 | > 80 µM (inactive)
29 | CC1(C)Cc2c(C#N)c(NCC3CCCO3)nc(-c3ccco3)c2CO1 (configuration not stated) | 15.6 µM
30 | Cc1nnc2n(C3CCCCC3)c(=O)c3c4c(sc3n12)COC(C)(C)C4 | 38.5 µM (inactive)
31 | COc1ccc2c(c1)c1ccc3c(c1n2C)C(=O)C=CC3=O | > 80 µM (inactive)
32 | COC(=O)c1[nH]c2ccccc2c1NC(=O)CCN1CCSCC1 | > 80 µM (inactive)
33 | CN1Cc2cnnn2-c2ccccc2C1C#N (configuration not stated) | 25.7 µM (inactive)
34 | CCCNC(=O)COC(=O)c1ccccc1C(=O)c1ccc(Cl)c([N+](=O)[O-])c1 | 47.1 µM (inactive)
35 | CN(C)CCN(C(=O)c1ccc2ccccc2c1)c1nc2cc3c(cc2s1)OCO3 | > 80 µM (inactive)
36 | CCCCc1cc(=O)oc2cc(OCc3cc(OC)c(OC)c(OC)c3)c(Cl)cc12 | > 80 µM (inactive)
37 | COc1c(Cl)cnn(-c2ccc(C)cc2)c1=O | > 80 µM (inactive)
38 | O=C1/C(=C/c2ccncc2)CCC/C1=C\c1ccncc1 | 10.1 µM
39 | O=C(COc1ccccc1)Nc1nc(-c2ccncc2)cs1 | 15.9 µM
40 | O=C(Nc1ccc(N2CCOCC2)cc1)c1cccc(S(=O)(=O)N2CCCC2)c1 | > 80 µM (inactive)
41 | CC(=O)c1ccccc1NC(=O)COC(=O)CCCN1C(=O)c2cccc3cccc(c23)C1=O | > 80 µM (inactive)
42 | C=C1C(C)C2C(Cc3ccccc3)NC(=O)C23C(OC(C)=O)C=CC(C)(O)CC(C)CC=CC3C1O (configuration not stated) | 0.448 µM
43 | CCOC(=O)c1c(-c2cc(OC)c(OC)c(OC)c2)csc1N | > 80 µM (inactive)
44 | CC1(C)Cc2c(C#N)c(SCC(=O)c3ccccc3)nc(N3CCOCC3)c2CS1 | 13.4 µM
45 | CCCc1nc(SCC(=O)Nc2nc3c(s2)CCCC3)c2ccccc2n1 | > 80 µM (inactive)
46 | Cc1ccc(NS(=O)(=O)c2ccc3c(c2)CC(=O)N3)c(C)c1 | > 80 µM (inactive)
47 | CCOC(=O)c1c(C)nc2sc3c(c2c1-c1ccc(OC)cc1)NC(c1ccccc1)NC3=O (configuration not stated) | > 80 µM (inactive)
